Measurements taken from patent US7198775B2, “Detectably labeled porphyrin compound for identifying the sentinel lymph node” (The Trustees of Columbia University in the City of New York, priority 2000, dated 2007).

Columns and labels:
[1] = tested on: lymph nodes; assay: dye tested on rabbits for staining of the lymph nodes; assay type: in vivo
Excerpt: The present invention in one embodiment therefore acts as a dye that stains the lymphatic channels of the body for identification of the sentinel lymph node.

[2] = rats bearing tumors; cited from earlier work

Substance	staining of the lymph nodes [1]	in vivo stability of the complex [2]	tissue distribution (accumulation of most of the product) [2]	tumor uptake [2]
Tc-99m Phthalocyanine Tetrasulfonate [Tc-99m-PCTS]	successfully shown to stain the lymph nodes			
^99Tc-labeled-tetrasulfophtalocyanine [[^99Tc] TSPC]		absence of ^99Tc accumulation in the thyroid and the stomach	accumulated in the liver, kidneys, ovaries, and uterus	occurred mainly in the exterior cell layers
